# Tested on: NCI/ADR-RES complex spheroid viability
# Assay: Anticancer human tumor NCI/ADR-RES cell line growth inhibition;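 further: spheroids exposed to compounds for 7 days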;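 on viability, T/C: 100% = DMSO vehicle treated spheroids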
# Conditions: for IC50: curve of first compound; for viability, T/C: stronger effect = lower value
# From the text: Multicellular complex tumor spheroid response to LSD1 Inhibitor Iadademstat in combination with a variety of drugs and investigational agents in selected tumor cell lines
# The current study was undertaken to assess response to LSD1 inhibitors in combination with standard-of-care drugs and investigational agents in solid tumor complex spheroid models as well as in the K-562 leukemia. Complex spheroids include a stromal component modeled by human endothelial cells (HUVEC) and fibroblasts modeled by human mesenchymal stem cells (MSCs). The concentration ranges selected for each drug and investigational agent were based upon clinically achievable concentrations if the clinical Cmax of the agent was known.
# Compounds. The drugs and investigational agents used in this study are listed on Table 1. All of the agents used, including staurosporine (NSC755774) and gemcitabine (NSC613327), were obtained from the Developmental Therapeutics Program, NCI. FDA-approved anticancer drugs are available from the NCI at http://dtp.nci.nih.gov/branches/dscb/oncology_drugset_explanation.html. Drugs and investigational agents were >95% pure by proton nuclear magnetic resonance (NMR) and liquid chromatography/mass spectrometry (LC/MS). Stock solutions were prepared at 400x in DMSO, stored at -70 degrees C, and diluted in fresh medium prior to their use. The final concentration of DMSO in cell culture wells never exceeded 0.25% (v/v). The FDA-approved anticancer drug set is available from the Developmental Therapeutics Program at https://dtp.cancer.gov/organization/dscb/obtaining/available_plates.htm. All drugs and investigational agents were tested over a range starting from a high concentration at or near the clinical Cmax and decreasing in half-log increments. If the clinical Cmax for an agent had not been determined, the highest concentration tested was 10 microM.
# Cell Lines. The patient-derived cancer cell (PDC) lines: 292921-168-R-J2-PDC, K24384-001-R-PDC, and 521955-158-R2-J5-PDC pancreatic carcinomas, 556581-035-R-J1 ovarian carcinoma, 324938-238-R-J1-PDC, 855422-203-R-J1-PDC and 883617-216-R-J1-PDC urothelial bladder carcinomas, 743489-274-T-PDC renal cell carcinoma, 138582-R-J1 Merkel cell tumor, K60290-347-R-J1 and K57222-313-R-J1-PDC glioblastomas, 653999-131-R-J2-PDC, LG0703-F948-PDC, and 349418-098-R-PDC non-small cell lung carcinomas, 885512-296-R-J2-PDC, 171881-019-R-J1-PDC breast carcinomas and 186277-243-T-J2-PDC and 233499-124-R-J2-PDC colon carcinomas were obtained from the NCI Patient-Derived Models Repository (PDMR, https://pdmr.cancer.gov). The established cell lines NCI/ADR-RES (RRID:CVCL_14520 and OVCAR-5 (RRID:CVCL_1628) ovarian carcinomas, 786-O (RRID:CVCL_1051) and A498 (RRID:CVCL_A498) renal cell carcinoma, NCI-H211 (ATCC, cat. CRL-5824; RRID:CVCL_1529), NCI-H196 (ATCC, cat. CRL-5823, RRID:CVCL_1509), SW 1271 (ATCC, cat. CRL-2177, RRID:CVCL_1716) and NCI-H1876 (ATCC, cat. CRL-5902, RRID:CVCL_1503) small cell lung carcinomas, MDA-MB-231 (RRID:CVCL_0062) and MDA-MB-468 (RRID:CVCL_0419)breast carcinomas (10-12). Pooled donor human umbilical vein endothelial cells (HUVEC, Lonza, cat. CC-2519) and human mesenchymal stem cells (hMSC, Lonza, cat. PT-2501) were purchased from Lonza (Walkersville, MD).
# Cell Culture. All cells were maintained in an incubator at 37 degrees C and 5% CO2 with 95% humidity. The PDC lines were cultured according to standard operating procedures established by the NCI PDMR (https://pdmr.cancer.gov). Briefly all PDCs were thawed and cultured in Matrigel-coated flasks prepared with a working solution of 1X Ham's F-12 nutrient mix, without supplementation (Invitrogen, Waltham, MA, cat. 11765054), 100 U/mL penicillin-streptomycin (Invitrogen, cat. 15140122), and 2.5% Matrigel (Corning Inc., Corning, NY, cat. 354248) for the first three passages. […]
structure (smiles),measurement,setting,value
COc1cc(C2c3cc4c(cc3C(OC3OC5COC(C)OC5C(O)C3O)C3COC(=O)C23)OCO4)cc(OC)c1O (stereo not given) + NC1CC1c1ccc(-c2cccc(O)c2)cc1,IC50,second compound 0.1 µM,> 3000 nM
same,IC50,second compound 0.316 µM,> 3000 nM
same,IC50,second compound 1 µM,> 3000 nM
same,IC50,second compound 3.16 µM,> 3000 nM
same,IC50,second compound 10 µM,> 3000 nM
same,"viability, T/C","second compound 0.1 µM, first compound 0.00949 µM",104%
same,"viability, T/C","second compound 0.1 µM, first compound 0.03 µM",112%
same,"viability, T/C","second compound 0.1 µM, first compound 0.0949 µM",106%
same,"viability, T/C","second compound 0.1 µM, first compound 0.3 µM",101%
same,"viability, T/C","second compound 0.1 µM, first compound 0.949 µM",100%
same,"viability, T/C","second compound 0.1 µM, first compound 3 µM",90.4%
same,"viability, T/C","second compound 0.316 µM, first compound 0.00949 µM",113%
same,"viability, T/C","second compound 0.316 µM, first compound 0.03 µM",104%
same,"viability, T/C","second compound 0.316 µM, first compound 0.0949 µM",106%
same,"viability, T/C","second compound 0.316 µM, first compound 0.3 µM",104%
same,"viability, T/C","second compound 0.316 µM, first compound 0.949 µM",103%
same,"viability, T/C","second compound 0.316 µM, first compound 3 µM",92.6%
same,"viability, T/C","second compound 1 µM, first compound 0.00949 µM",102%
same,"viability, T/C","second compound 1 µM, first compound 0.03 µM",101%
same,"viability, T/C","second compound 1 µM, first compound 0.0949 µM",99.6%
same,"viability, T/C","second compound 1 µM, first compound 0.3 µM",96.5%
same,"viability, T/C","second compound 1 µM, first compound 0.949 µM",92.7%
same,"viability, T/C","second compound 1 µM, first compound 3 µM",92.4%
same,"viability, T/C","second compound 3.16 µM, first compound 0.00949 µM",98.5%
same,"viability, T/C","second compound 3.16 µM, first compound 0.03 µM",100%
same,"viability, T/C","second compound 3.16 µM, first compound 0.0949 µM",95.2%
same,"viability, T/C","second compound 3.16 µM, first compound 0.3 µM",95.7%
same,"viability, T/C","second compound 3.16 µM, first compound 0.949 µM",94.2%
same,"viability, T/C","second compound 3.16 µM, first compound 3 µM",84.9%
same,"viability, T/C","second compound 10 µM, first compound 0.00949 µM",84.6%
same,"viability, T/C","second compound 10 µM, first compound 0.03 µM",81%
same,"viability, T/C","second compound 10 µM, first compound 0.0949 µM",79.3%
same,"viability, T/C","second compound 10 µM, first compound 0.3 µM",80.2%
same,"viability, T/C","second compound 10 µM, first compound 0.949 µM",78.6%
same,"viability, T/C","second compound 10 µM, first compound 3 µM",71.1%
Nc1ncn(C2CC(O)C(CO)O2)c(=O)n1 (stereo not given) + NC1CC1c1ccc(-c2cccc(O)c2)cc1,IC50,second compound 0.1 µM,49.3 nM
same,IC50,second compound 0.316 µM,49.1 nM
same,IC50,second compound 1 µM,38.4 nM
same,IC50,second compound 3.16 µM,46 nM
same,IC50,second compound 10 µM,25.4 nM
same,"viability, T/C","second compound 0.1 µM, first compound 0.00316 µM",90.5%
same,"viability, T/C","second compound 0.1 µM, first compound 0.01 µM",79.4%
same,"viability, T/C","second compound 0.1 µM, first compound 0.0316 µM",61.5%
same,"viability, T/C","second compound 0.1 µM, first compound 0.1 µM",32.8%
same,"viability, T/C","second compound 0.1 µM, first compound 0.316 µM",19.9%
same,"viability, T/C","second compound 0.1 µM, first compound 1 µM",13.6%
same,"viability, T/C","second compound 0.316 µM, first compound 0.00316 µM",93.3%
same,"viability, T/C","second compound 0.316 µM, first compound 0.01 µM",83%
same,"viability, T/C","second compound 0.316 µM, first compound 0.0316 µM",62%
same,"viability, T/C","second compound 0.316 µM, first compound 0.1 µM",31.3%
same,"viability, T/C","second compound 0.316 µM, first compound 0.316 µM",17.8%
same,"viability, T/C","second compound 0.316 µM, first compound 1 µM",12.5%
same,"viability, T/C","second compound 1 µM, first compound 0.00316 µM",88.5%
same,"viability, T/C","second compound 1 µM, first compound 0.01 µM",77.5%
same,"viability, T/C","second compound 1 µM, first compound 0.0316 µM",53.4%
same,"viability, T/C","second compound 1 µM, first compound 0.1 µM",30.4%
same,"viability, T/C","second compound 1 µM, first compound 0.316 µM",15.8%
same,"viability, T/C","second compound 1 µM, first compound 1 µM",10.8%
same,"viability, T/C","second compound 3.16 µM, first compound 0.00316 µM",94.6%
same,"viability, T/C","second compound 3.16 µM, first compound 0.01 µM",78.3%
same,"viability, T/C","second compound 3.16 µM, first compound 0.0316 µM",61%
same,"viability, T/C","second compound 3.16 µM, first compound 0.1 µM",32%
same,"viability, T/C","second compound 3.16 µM, first compound 0.316 µM",15%
same,"viability, T/C","second compound 3.16 µM, first compound 1 µM",12.4%
same,"viability, T/C","second compound 10 µM, first compound 0.00316 µM",73.5%
same,"viability, T/C","second compound 10 µM, first compound 0.01 µM",63.7%
same,"viability, T/C","second compound 10 µM, first compound 0.0316 µM",45.5%
same,"viability, T/C","second compound 10 µM, first compound 0.1 µM",32.2%
same,"viability, T/C","second compound 10 µM, first compound 0.316 µM",16.1%
same,"viability, T/C","second compound 10 µM, first compound 1 µM",11.8%

# Reference: PubChem BioAssay AID1918955 (Molecular Pharmacology Branch, DTP, NCI, 2023)
